Experimental data as given in the NIST ThermoML archive (doi:10.1021/acs.jced.9b00046).
Numbers after ± are expanded uncertainties.

Settings: 99.6 kPa, Liquid; for viscosity: Capillary tube (Ostwald / Ubbelohde) method; for mass density: Vibrating tube method

CNC(C)=O [N-methylacetamide]
Settings | mass density [kg/m3] | viscosity [mPa·s]
308.15 K | 945.71 ± 1.9 | 3.488 ± 0.043
313.15 K | 941.53 ± 1.9 | 3.073 ± 0.038
318.15 K | 937.33 ± 1.9 | 2.723 ± 0.034
323.15 K | 933.16 ± 1.9 | 2.438 ± 0.03
328.15 K | 928.93 ± 1.9 | 2.194 ± 0.027
